Values of other authors as cited in US20220133758A1, “TREATMENT OF INFLAMMATORY BOWEL DISEASES WITH 2'-FUCOSYLLACTOSE COMPOUNDS” (CHILDREN'S HOSPITAL MEDICAL CENTER, priority 2017, published 2022).

Legend:
[1] = infliximab or adalimumab anti-TNF therapy, despite optimal therapeutic drug monitoring and dosing
[2] = test system: EC genes regulating butyrate transport, signaling, and mitochondrial oxidation; conditions: IBD patients who experience mucosal healing

In the case of “infliximab: monoclonal anti-TNF antibody”, the Bifidobacterium abundance (fecal Bifidobacterium; pediatric CD study) is given as “not associated with increased Bifidobacterium abundance”, the correction of dysbiosis (fecal Bifidobacterium; suppression of mucosal inflammation) is given as “only partially corrects” and the patients relapsed [1] is given as 37%. For the same substance, the “inflammatory suppression of EC genes regulating butyrate transport, signaling, and mitochondrial oxidation” value [2] was “largely corrected”.

For adalimumab, the patients relapsed [1] is given as 37%.
